Data published in patent publication US20100197625A1, “SYNTHETIC LIPOPHILIC INOSITOL GLYCANS FOR TREATMENT OF CANCER AND GLUCOSE-METABOLISM DISORDERS” (priority 2006, published 2010).
“Also recorded” adds a separate entry of the source.

Experiments:
Panc-1 cells [1] = experiment: ATP contents in Panc-1 cells; assay type: cell-based, human; conditions: 1 hour incubation in serum free media
Method: (§1) Human pancreatic cancer cell lines (Panc-1, MiaPaca2, BXPC3, Aspc 1), human hepatoma cell line (HuH7), human gastric cancer cell lines (AGS, MKN45), human colon cancer cell line (CoCM-1), human mammary cancer cell line (MCF-7), human neuroblastoma (SH-SY5Y), human prostate cancer cells (PC3), and murine Ehrlich ascites cancer cells and mouse 3T3-L1 fibroblasts were obtained from American Type Culture Collection (Rockville, Md., USA). The cancer cells were cultured in RPMI 1640 containing 10% fetal calf serum. Cultures were maintained at 37° C. in a humidified atmosphere of 5% CO2.

Panc-1 cells [2] = experiment: Cell proliferation / cell death assay, Panc-1; assay type: cell-based, human
Method: as §1
Cell proliferation assays were performed with the CellTiter 96 AQueous One Solution Cell Proliferation Assay kit according to the manufacturer's instructions (Promega, Madison, Wis., USA). Briefly, 5×10^3 cells/well in medium were placed onto 96-well plates. IGs were added to cellular cultures at final concentrations of 0, 1, 10, and 100 μM. […] of CellTiter 96 AQueous One Solution Reagent, which contains a tetrazolium compound, 3-(4,5-dimethylthiazol-2-yl)-5-(3-carboxymethoxyphenyl)-2-(4-sulfophenyl)-2H-tetrazolium, an inner salt; MTS was added to the culture medium. After incubating the plate for 1 h in a CO2 incubator, absorbance at 490 nm was recorded with a 96-well plate reader.

BXPC3 = experiment: Cell proliferation / cell death assay, BXPC3; assay type: cell-based, human; conditions: BXPC3, 10-100 μM
Method: as §1
(§2) Cell proliferation assays were performed with the CellTiter 96 AQueous One Solution Cell Proliferation Assay kit according to the manufacturer's instructions (Promega, Madison, Wis., USA). Briefly, 5×10^3 cells/well in medium were placed onto 96-well plates. IGs were added to cellular cultures at final concentrations of 0, 1, 10, and 100 μM. Cultures were incubated for 3 days or 7 days and then added to 20 μL/well of CellTiter 96 AQueous One Solution Reagent, which contains a tetrazolium compound, 3-(4,5-dimethylthiazol-2-yl)-5-(3-carboxymethoxyphenyl)-2-(4-sulfophenyl)-2H-tetrazolium, an inner salt; MTS was added to the culture medium. After incubating the plate for 1 h in a CO2 incubator, absorbance at 490 nm was recorded with a 96-well plate reader.

[3] = test system: human mammary cancer cells (MCF-7); experiment: Cell proliferation / cell death assay, MCF-7; assay type: cell-based; conditions: MCF-7, 10-100 μM
Method: as §1, §2

[4] = test system: human umbilical vein endothelial cells (HUVEC); experiment: Cell death of human umbilical vein endothelial cells; assay type: cell-based; conditions: in 1 hour
3T3-L1 adipocytes = experiment: Lipogenesis in 3T3-L1 adipocytes; assay type: cell-based, mouse; conditions: 10-1000 μM
Method: 3T3-L1 fibroblasts were maintained in Dulbecco's modified Eagle's medium (DMEM) with 25 mM glucose plus 10% fetal bovine serum (FBS). Following 2 days at confluence, differentiation was initiated by the addition of DMEM containing 10% FBS, 167 nM insulin, […] dexamethasone, and 0.5 mM isobutylmethylxanthine. Three days later, the medium was replaced with DMEM plus 10% FBS and 167 nM insulin. After 2 more days, the medium was switched to DMEM plus 10% fetal bovine serum. Adipocytes were used 6-14 days after completion of the differentiation protocol, when >90% of the cells expressed the adipocyte phenotype. Prior to experiments, cells were washed two times with DMEM medium containing 5 mM glucose, 0.2% bovine serum albumin, 25 mM Hepes (pH 7.4), 100 units/ml penicillin, 100 units/ml streptomycin and 0.29 mg/ml glutamine, and were incubated in the same medium for 2 h. Glycogen and lipid synthesis were measured in 24-well dishes. […] The lipids were then extracted overnight with 5 ml of Betafluor (National Diagnostics), and glucose incorporation into lipid was measured by scintillation counting. 400 μl of the cell suspension was added to 600 μl of 50% KOH, and glycogen was precipitated and radioactivity was counted by a liquid scintillation counter

[5] = test system: C57B/6 mice on high-fat diets; experiment: Intravenous administration of IG1, mice on high-fat diets; assay type: in vivo
Method: Male C57BL/6 mice were housed individually and given free access to a standard diet (65% carbohydrate, 4% fat, and 24% protein) or a high-fat diet (Quick Fat; 60.2% carbohydrate, 15.3% fat, and 24.5% protein; Clea Japan, Tokyo, Japan), starting at 5 weeks of age, for 5 weeks. Db/db mice also were housed individually and given free access to a standard diet. C57BL/6 mice at 5 weeks of age, were received a single dose of 75 μg/g body weight streptozotoxin (STZ). 7 days after injections, the mice, whose fasting plasma glucose concentrations were over 400 mg/dl, were used as STZ-diabetic mice. […]
Frozen livers were homogenized, and triglycerides were extracted with CHCl3:CH3OH (2:1, vol:vol), dried and resuspended in 2-propanol (17). Triglyceride contents were measured using Lipidos liquid (TOYOBO, Osaka, Japan). […] Glycogen content was determined by the phenol-sulfuric acid spectrophotometric method at 490 nm (18) and expressed as micrograms of glycogen per milligram of liver.
Blood glucose was assayed with Glucose Ace (Sanwa Kagaku Kenkyusho, Nagoya, Japan). Serum insulin and leptin were determined with ELISA kits (Morinaga Institute of Biological Science, Yokohama, Japan). Serum adiponectin and tumor necrosis factor-α (TNF-α) concentrations were measured with an ELISA kit (Ohtsuka Pharmaceutical, Tokyo, Japan) and a TNF-α assay kit (Amersham Biosciences, Uppsala, Sweden), respectively. […]

`CCCCCCCCCCCCCCCC(=O)O[C@@H]1C(O)C(O)[C@H](O)C(O[C@H]2OC(CO)[C@@H](O)[C@H](O)C2N)C1O` (stereo in doubt) [IG1, 2-Amino-2-deoxy-α-D-glucopyranosyl-(1→6)-2-palmitoyl-D-myo-inositol] was tested, and the ATP contents (Panc-1 cells [1]) was “does not affect ATP contents”, the cell death (Panc-1 cells [2]; Panc-1, 1 hour after addition, 10-100 μM) was “induced very rapid cell death; also recorded: induced rapid cell death” and the cell death (Panc-1 cells [2]; Panc-1, after 24 hours) was “induced rapid cell death”. The cell death (Panc-1 cells [2]; Panc-1, after 3 days (72 hours)) was “induced rapid cell death”, the “rapid cancer cell death” value (BXPC3) was “rapid cancer cell death was demonstrated” and the “rapid cancer cell death” value [3] was “rapid cancer cell death was demonstrated”. For the same molecule, the “cell death of HUVEC” value [4] was “induces rapid cell death”, the lipogenesis (3T3-L1 adipocytes) was “stimulates” and the plasma glucose concentrations ([5]; intravenous, 0.3-1 mg per mice, 90-300 min after administration) was “significantly reduced plasma glucose concentrations”. For the same molecule, the “hepatic and muscular glycogen contents” value ([5]; mice on high-fat diets, data not shown) was “significantly increases hepatic and muscular glycogen contents”.
